According to article PMC5502055, “Phase II study of lanreotide autogel in Japanese patients with unresectable or metastatic well-differentiated neuroendocrine tumors” (Investigational New Drugs, 2017):
Like-named read-outs stand apart in the source and are kept apart here.

Tests used:
[1] = Pharmacokinetics: serum lanreotide concentration (radioimmunoassay); type: in vivo, human
Procedure: Full analysis set (FAS) and CLARINET-like FAS which was satisfied eligibility criteria of the CLARINET study were used for efficacy analysis. Safety analysis set which included patients who had received the study drug at least once was used for safety analysis. Per protocol set (PPS) was used for pharmacokinetic analysis.
Regarding pharmacokinetics evaluations, serum lanreotide concentrations were determined on the day of first administration (before and 2 and 4 h after administration of the study drug) and at 4, 8, 12, 16, and 20 (before and 2 and 4 h after administration of the study drug), 24, 36, and 48 weeks after the start of administration (or at the time of discontinuation). Serum lanreotide concentrations were centrally determined using a validated radioimmunoassay (RIA; Kymos Pharma Services S.L., Barcelona, Spain).

[2] = Serum anti-lanreotide antibody test (radioimmunoprecipitation assay); type: in vivo, human
Procedure: For the safety evaluation, adverse events (AEs) were recorded after the first injection until the point of data cutoff (December 2015) in the extension study. AE severity was assessed according to the National Cancer Institute Common Terminology Criteria for Adverse Events (NCI-CTCAE) ver. 4.0. Gallbladder echography and blood evaluations, including serum anti-lanreotide antibody tests were performed every 12 weeks during the 48 -week period after the first injection, and every 24 weeks thereafter.
Serum anti-lanreotide antibody levels were determined every 4 weeks for the 24-weeks period following the start of administration, and every 12 weeks thereafter for the 48-weeks. Serum anti-lanreotide antibody levels were centrally determined using a validated radioimmunoprecipitation assay (RIPA; SGS Cephac, Saint-Benoît, France). Anti-lanreotide antibody-positivity was evaluated in two stages: screening test and confirmation test. Antibody titers were determined for samples found to be positive in the confirmation test.

CC(C)[C@@H]1NC(=O)[C@H](CCCCN)NC(=O)[C@@H](Cc2c[nH]c3ccccc23)NC(=O)[C@H](Cc2ccc(O)cc2)NC(=O)[C@@H](NC(=O)[C@H](N)Cc2ccc3ccccc3c2)CSSC[C@@H](C(=O)N[C@H](C(N)=O)[C@@H](C)O)NC1=O [lanreotide]
number of doses to near-steady state ([1]; 120 mg every 4 weeks): 3 doses
Tmax ([1]; human, in vivo, injection at 20 weeks after the first injection, read-out: median time to reach the maximum serum concentration): 3.8 h
Tmax ([1]; human, in vivo, serum, PPS 28 patients, read-out: time of Cmax after the first injection (median)): 3.9 h
Cmax ([1]; human, in vivo, 120 mg every 4 weeks, PPS 28 patients, mean ± SD, read-out: Cmax at 20 weeks after the first injection): 24.2 ± 20.2 ng/mL
level at 672 h ([1]; human, serum, sc, 120 mg, PPS 28 patients, read-out: serum concentration at 4 weeks after the first injection, before injection (trough, mean ± SD)): 3.1 ± 1.4 ng/mL
level at 4032 h ([1]; human, serum, sc, 120 mg every 4 weeks, PPS 28 patients, mean ± SD, read-out: trough concentration at 24 weeks after the first injection): 6.1 ± 3.3 ng/mL
Cmax after the first injection (mean ± SD) ([1]; serum, 120 mg deep s.c., PPS 28 patients, RIA): 20.2 ± 18.2 ng/mL
patients positive for anti-lanreotide antibodies ([2]; 2 patients, RIPA): 6.3%
Anti-lanreotide antibody test ([2]; Patient A, Baseline): Negative
Anti-lanreotide antibody test ([2]; Patient A, Week 4): Negative
Anti-lanreotide antibody test ([2]; Patient A, Week 8): Negative
Anti-lanreotide antibody test ([2]; Patient A, Week 12): Negative
Anti-lanreotide antibody test ([2]; Patient A, Week 16): Positive
Antibody titer ([2]; Patient A, Week 16): 1/1
Anti-lanreotide antibody test ([2]; Patient A, Week 20): Negative
Anti-lanreotide antibody test ([2]; Patient A, Week 24): Negative
Anti-lanreotide antibody test ([2]; Patient A, Week 36): Positive
Antibody titer ([2]; Patient A, Week 36): 1/2
Anti-lanreotide antibody test ([2]; Patient B, Baseline): Negative
Anti-lanreotide antibody test ([2]; Patient B, Week 4): Negative
Anti-lanreotide antibody test ([2]; Patient B, Week 8): Positive
Antibody titer ([2]; Patient B, Week 8): 1/4
Anti-lanreotide antibody test ([2]; Patient B, Week 12): Positive
Antibody titer ([2]; Patient B, Week 12): 1/32
Anti-lanreotide antibody test ([2]; Patient B, Week 16): Positive
Antibody titer ([2]; Patient B, Week 16): 1/32
Anti-lanreotide antibody test ([2]; Patient B, Week 20): Positive
Antibody titer ([2]; Patient B, Week 20): 1/64
Anti-lanreotide antibody test ([2]; Patient B, Week 24): Positive
Antibody titer ([2]; Patient B, Week 24): 1/64
Anti-lanreotide antibody test ([2]; Patient B, Week 36): Positive
Antibody titer ([2]; Patient B, Week 36): 1/256
Anti-lanreotide antibody test ([2]; Patient B, Week 48): Positive
Antibody titer ([2]; Patient B, Week 48): 1/512
